{
  "source": "ChEMBL document CHEMBL3046459",
  "about": "“Structural insights for 3H-1, -2, -4 triazolinones as angiotensin II receptor antagonists using QSAR techniques” (Med Chem Res, 2010)",
  "data": [
    {"molecular_target": "T1, Type-1 angiotensin II receptor (Oryctolagus cuniculus) (UniProt P34976)", "T1 sequence (whole entry)": "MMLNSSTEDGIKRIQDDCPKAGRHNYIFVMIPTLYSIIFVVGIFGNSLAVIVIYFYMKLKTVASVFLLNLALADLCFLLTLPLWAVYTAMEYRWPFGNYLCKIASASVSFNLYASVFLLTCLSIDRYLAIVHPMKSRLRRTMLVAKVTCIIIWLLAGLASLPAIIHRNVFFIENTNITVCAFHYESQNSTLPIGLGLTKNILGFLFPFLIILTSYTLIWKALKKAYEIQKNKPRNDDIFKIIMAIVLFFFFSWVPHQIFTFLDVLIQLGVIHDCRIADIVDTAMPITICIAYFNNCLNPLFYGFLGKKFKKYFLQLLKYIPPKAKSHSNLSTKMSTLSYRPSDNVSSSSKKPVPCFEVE", "assay": "(§1) Antagonist activity at angiotensin 2 type-1 receptor in Oryctolagus cuniculus (rabbit) aorta in presence of bovine serum albumin", "design": "unit not given here", "values": [
      {"smiles": "CCCCc1nn(CC2CCCCC2)c(=O)n1Cc1ccc(-c2ccccc2-c2nn[nH]n2)cc1", "logIC50": 0.462},
      {"smiles": "CCCCc1nn(C)c(=O)n1Cc1ccc(-c2ccccc2-c2nn[nH]n2)cc1", "logIC50": 1.84},
      {"smiles": "CCCCc1nn(-c2cccc([N+](=O)[O-])c2)c(=O)n1Cc1ccc(-c2ccccc2-c2nn[nH]n2)cc1", "logIC50": 1.63},
      {"smiles": "CCCCc1nn(-c2ccc(OC)cc2[N+](=O)[O-])c(=O)n1Cc1ccc(-c2ccccc2-c2nn[nH]n2)cc1", "logIC50": -0.131},
      {"smiles": "CCCCc1nn(-c2c(Cl)cccc2Cl)c(=O)n1Cc1ccc(-c2ccccc2-c2nn[nH]n2)cc1", "logIC50": 0.763},
      {"smiles": "CCCCc1nn(Cc2cccc(C)c2)c(=O)n1Cc1ccc(-c2ccccc2-c2nn[nH]n2)cc1", "logIC50": 1.08},
      {"smiles": "CCCCc1nn(-c2ccc(CC)cc2)c(=O)n1Cc1ccc(-c2ccccc2-c2nn[nH]n2)cc1", "logIC50": 1.43},
      {"smiles": "CCCCc1nn(C(C(=O)O)c2ccccc2)c(=O)n1Cc1ccc(-c2ccccc2-c2nn[nH]n2)cc1", "note": "(centres undefined)", "logIC50": 1.83},
      {"smiles": "CCCCc1nn(-c2ccccc2N)c(=O)n1Cc1ccc(-c2ccccc2-c2nn[nH]n2)cc1", "logIC50": 2},
      {"smiles": "CCCCc1nn(-c2ccccc2OC)c(=O)n1Cc1ccc(-c2ccccc2-c2nn[nH]n2)cc1", "logIC50": 0.82},
      {"smiles": "CCCCc1nn(-c2ccccc2C)c(=O)n1Cc1ccc(-c2ccccc2-c2nn[nH]n2)cc1", "logIC50": 0.613},
      {"smiles": "CCCCc1nn(CC)c(=O)n1Cc1ccc(-c2ccccc2-c2nn[nH]n2)cc1", "logIC50": 1},
      {"smiles": "CCCCCc1nn(-c2ccccc2Cl)c(=O)n1Cc1ccc(-c2ccccc2-c2nn[nH]n2)cc1", "logIC50": 0.756},
      {"smiles": "CCCCc1nn(-c2ccc([N+](=O)[O-])cc2)c(=O)n1Cc1ccc(-c2ccccc2-c2nn[nH]n2)cc1", "logIC50": 1.9},
      {"smiles": "CCCCc1nn(-c2ccc(OC)cc2)c(=O)n1Cc1ccc(-c2ccccc2-c2nn[nH]n2)cc1", "logIC50": 0.699},
      {"smiles": "CCCCc1nn(-c2cccc(OC)c2)c(=O)n1Cc1ccc(-c2ccccc2-c2nn[nH]n2)cc1", "logIC50": 1.18},
      {"smiles": "CCCCCc1nn(-c2ccccc2[N+](=O)[O-])c(=O)n1Cc1ccc(-c2ccccc2-c2nn[nH]n2)cc1", "logIC50": -0.0315},
      {"smiles": "CCCCc1nn(-c2ccccc2-c2ccccc2)c(=O)n1Cc1ccc(-c2ccccc2-c2nn[nH]n2)cc1", "logIC50": 0.556},
      {"smiles": "CCCCc1nn(Cc2ccccc2C(=O)OC)c(=O)n1Cc1ccc(-c2ccccc2-c2nn[nH]n2)cc1", "logIC50": 1.04},
      {"smiles": "CCCCc1nn(Cc2ccccc2)c(=O)n1Cc1ccc(-c2ccccc2-c2nn[nH]n2)cc1", "logIC50": 0.663},
      {"smiles": "CCCCc1nn(Cc2ccc(C(=O)OC)cc2)c(=O)n1Cc1ccc(-c2ccccc2-c2nn[nH]n2)cc1", "logIC50": 1.36},
      {"smiles": "CCCCc1nn(C(C)C)c(=O)n1Cc1ccc(-c2ccccc2-c2nn[nH]n2)cc1", "logIC50": 0.886},
      {"smiles": "CCCCc1nn(Cc2cccc(C(=O)OC)c2)c(=O)n1Cc1ccc(-c2ccccc2-c2nn[nH]n2)cc1", "logIC50": 2.04},
      {"smiles": "CCCCc1nn(-c2c(F)c(F)c(F)c(F)c2F)c(=O)n1Cc1ccc(-c2ccccc2-c2nn[nH]n2)cc1", "logIC50": 1.23},
      {"smiles": "CCCCc1nn(Cc2ccccc2C(=O)O)c(=O)n1Cc1ccc(-c2ccccc2-c2nn[nH]n2)cc1", "logIC50": 2.69},
      {"smiles": "CCCCc1nn(-c2ccccc2Cc2ccccc2)c(=O)n1Cc1ccc(-c2ccccc2-c2nn[nH]n2)cc1", "logIC50": 1.04},
      {"smiles": "CCCCc1nn(-c2ccc(F)cc2)c(=O)n1Cc1ccc(-c2ccccc2-c2nn[nH]n2)cc1", "logIC50": 1.32},
      {"smiles": "CCCCc1nn(Cc2ccccc2C)c(=O)n1Cc1ccc(-c2ccccc2-c2nn[nH]n2)cc1", "logIC50": 1.04},
      {"smiles": "CCCCc1nn(C(C(=O)OC)c2ccccc2)c(=O)n1Cc1ccc(-c2ccccc2-c2nn[nH]n2)cc1", "note": "(centres undefined)", "logIC50": 1.08},
      {"smiles": "CCCCc1nn(CC(=O)OC)c(=O)n1Cc1ccc(-c2ccccc2-c2nn[nH]n2)cc1", "logIC50": 1.23},
      {"smiles": "CCCCc1nn(-c2cccc(C)c2)c(=O)n1Cc1ccc(-c2ccccc2-c2nn[nH]n2)cc1", "logIC50": 1.25},
      {"smiles": "CCCCc1nn(-c2ccc(C)cc2)c(=O)n1Cc1ccc(-c2ccccc2-c2nn[nH]n2)cc1", "logIC50": 1.2},
      {"smiles": "CCCCc1nn(-c2ccccc2Br)c(=O)n1Cc1ccc(-c2ccccc2-c2nn[nH]n2)cc1", "logIC50": 0.301},
      {"smiles": "CCCCc1nn(CCCC)c(=O)n1Cc1ccc(-c2ccccc2-c2nn[nH]n2)cc1", "logIC50": 0.462},
      {"smiles": "CCCCc1nn(-c2cccc(Cl)c2)c(=O)n1Cc1ccc(-c2ccccc2-c2nn[nH]n2)cc1", "logIC50": 2.08},
      {"smiles": "CCCCc1nn(-c2ccccc2Cl)c(=O)n1Cc1ccc(-c2ccccc2-c2nn[nH]n2)cc1", "logIC50": 0.38},
      {"smiles": "CCCCc1nn(-c2ccccc2C(=O)O)c(=O)n1Cc1ccc(-c2ccccc2-c2nn[nH]n2)cc1", "logIC50": 2.06},
      {"smiles": "CCCCc1nn(-c2ccccc2F)c(=O)n1Cc1ccc(-c2ccccc2-c2nn[nH]n2)cc1", "logIC50": 0.886},
      {"smiles": "CCCCc1nn(-c2ccccc2C(F)(F)F)c(=O)n1Cc1ccc(-c2ccccc2-c2nn[nH]n2)cc1", "logIC50": 0.0792},
      {"smiles": "CCCCc1nnc(O)n1Cc1ccc(-c2ccccc2-c2nn[nH]n2)cc1", "logIC50": 1.78},
      {"smiles": "CCCCc1nn(-c2ccccc2N(C)C)c(=O)n1Cc1ccc(-c2ccccc2-c2nn[nH]n2)cc1", "logIC50": 0.505},
      {"smiles": "CCCCc1nn(C(C)CC)c(=O)n1Cc1ccc(-c2ccccc2-c2nn[nH]n2)cc1", "note": "(centres undefined)", "logIC50": 0.255},
      {"smiles": "CCCCc1nn(CC(C)C)c(=O)n1Cc1ccc(-c2ccccc2-c2nn[nH]n2)cc1", "logIC50": 0.505},
      {"smiles": "CCCCc1nn(C(C)c2ccccc2)c(=O)n1Cc1ccc(-c2ccccc2-c2nn[nH]n2)cc1", "note": "(centres undefined)", "logIC50": 0.69},
      {"smiles": "CCCCc1nn(-c2ccccn2)c(=O)n1Cc1ccc(-c2ccccc2-c2nn[nH]n2)cc1", "logIC50": 1.9},
      {"smiles": "CCCCc1nn(CCC)c(=O)n1Cc1ccc(-c2ccccc2-c2nn[nH]n2)cc1", "logIC50": 0.914},
      {"smiles": "CCCCc1nn(-c2ccccc2C(=O)OC)c(=O)n1Cc1ccc(-c2ccccc2-c2nn[nH]n2)cc1", "logIC50": 0.748},
      {"smiles": "CCCCc1nn(-c2ccc(Cl)cc2)c(=O)n1Cc1ccc(-c2ccccc2-c2nn[nH]n2)cc1", "logIC50": 1.84},
      {"smiles": "CCCCc1nn(Cc2c(F)c(F)c(F)c(F)c2F)c(=O)n1Cc1ccc(-c2ccccc2-c2nn[nH]n2)cc1", "logIC50": 1.5},
      {"smiles": "CCCCc1nn(-c2ccccc2C(C)C)c(=O)n1Cc1ccc(-c2ccccc2-c2nn[nH]n2)cc1", "logIC50": 0.146},
      {"smiles": "CCCc1nn(-c2ccccc2Cl)c(=O)n1Cc1ccc(-c2ccccc2-c2nn[nH]n2)cc1", "logIC50": 1.15},
      {"smiles": "CCCc1nn(-c2ccccc2[N+](=O)[O-])c(=O)n1Cc1ccc(-c2ccccc2-c2nn[nH]n2)cc1", "logIC50": 0.978},
      {"smiles": "CCCCc1nn(-c2ccc(C(=O)OC)cc2)c(=O)n1Cc1ccc(-c2ccccc2-c2nn[nH]n2)cc1", "logIC50": 1.52}
    ]},
    {"molecular_target": "T2, Type-1 angiotensin II receptor (Oryctolagus cuniculus, UniProt P34976)", "T2 sequence (P34976 whole entry)": "T1 sequence (whole entry)", "assay": "as §1", "units": {"IC50": "nM"}, "values": [
      {"smiles": "CCCCc1nn(Cc2c(F)c(F)c(F)c(F)c2F)c(=O)n1Cc1ccc(-c2ccccc2-c2nn[nH]n2)cc1", "IC50": 6}
    ]}
  ]
}
